Experimental data reported in PMC8881063 (Journal of Enzyme Inhibition and Medicinal Chemistry, 2022).
“Also recorded” adds a separate entry of the source.

How the values were obtained:
[1] = biological target: T1, MAO-B (Homo sapiens, UniProt P27338); assay: MAO-B inhibition reversibility testing (washing); format: biochemical; conditions: enzymatic activity after washing
T1 sequence (P27338 1-520): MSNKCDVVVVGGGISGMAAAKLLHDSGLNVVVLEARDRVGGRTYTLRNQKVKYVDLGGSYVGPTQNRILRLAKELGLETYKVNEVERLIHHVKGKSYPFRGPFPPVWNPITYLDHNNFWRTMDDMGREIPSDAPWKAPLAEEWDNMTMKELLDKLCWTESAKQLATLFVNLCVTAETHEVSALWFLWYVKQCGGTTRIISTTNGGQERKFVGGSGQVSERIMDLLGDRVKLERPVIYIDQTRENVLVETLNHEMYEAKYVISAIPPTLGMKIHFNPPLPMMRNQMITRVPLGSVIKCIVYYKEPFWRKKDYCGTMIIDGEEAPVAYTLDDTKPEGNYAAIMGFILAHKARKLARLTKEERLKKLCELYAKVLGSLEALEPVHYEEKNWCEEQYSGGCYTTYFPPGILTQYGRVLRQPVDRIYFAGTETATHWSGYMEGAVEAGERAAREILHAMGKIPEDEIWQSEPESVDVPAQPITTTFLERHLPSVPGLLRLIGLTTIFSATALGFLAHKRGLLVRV
Procedure: (§1) To get insights into MAO-B inhibition reaction by compounds 1p and 1y, a kinetic study and reversibility testing were conducted. As illustrated in Figure 4(A,B), Michaelis–Menten graphs were constructed using different concentrations of compounds 1p and 1y employing different concentrations benzylamine as a substrate.
(§2) Kinetics of the inhibition of MAO-B and testing of reversibility were conducted according to literature-reported protocols[59] as indicated in the Supporting information.

[2] = biological target: T1, MAO-B; assay: hMAO-B inhibition, spectrophotometric assay; conditions: for Selectivity index for inhibition of MAO-B: IC50 MAO-A divided by IC50 MAO-B; for inhibition at 10 µM: read-out: MAO-B % Inhibition, single dose concentration of 10 µM
Procedure: The inhibitory activities of the compounds against hMAO-A and hMAO-B enzymes were evaluated referring to a previously described method (Supporting information)[49].

[3] = biological target: T1, MAO-B; assay: MAO-B inhibition kinetic study (Michaelis–Menten, Lineweaver–Burk); format: biochemical
Procedure: as §1, §2

[4] = biological target: T2, recombinant human MAO-A (Homo sapiens, UniProt P21397); assay: hMAO-A inhibition, spectrophotometric assay; format: biochemical; conditions: for inhibition at 10 µM: single dose concentration of 10 µM
T2 sequence (P21397 1-527): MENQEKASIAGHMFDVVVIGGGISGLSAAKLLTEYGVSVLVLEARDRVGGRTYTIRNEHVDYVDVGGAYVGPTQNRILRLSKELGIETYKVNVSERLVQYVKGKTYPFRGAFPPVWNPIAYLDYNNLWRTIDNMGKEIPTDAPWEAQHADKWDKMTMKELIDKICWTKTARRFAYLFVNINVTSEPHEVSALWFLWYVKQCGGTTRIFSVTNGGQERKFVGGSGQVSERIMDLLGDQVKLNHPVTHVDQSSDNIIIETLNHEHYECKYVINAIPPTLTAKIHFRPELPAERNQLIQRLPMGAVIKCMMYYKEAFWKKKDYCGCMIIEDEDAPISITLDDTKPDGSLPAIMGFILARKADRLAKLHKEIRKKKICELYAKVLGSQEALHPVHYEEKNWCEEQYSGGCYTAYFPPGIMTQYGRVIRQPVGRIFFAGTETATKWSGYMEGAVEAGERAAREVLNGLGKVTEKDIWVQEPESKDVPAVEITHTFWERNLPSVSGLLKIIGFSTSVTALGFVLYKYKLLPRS
Excerpt: Two different MAO isoforms are known.

[5] = system: BV2 cells; assay: BV2 cell viability, WST-1 assay; format: cell-based; conditions: doses of 1, 10, 30 and 50 µM
Excerpt: Promising antineurodegenrative candidate molecules should not impair viability of CNS cells. Microglia are critical cells within CNS involved in microglia–neuron communications and are responsible for maintenance of brain integrity and health[61]^,[62]. However, under neuroinflammatory conditions, aberrant activation of microglia contributes to neurodegeneration and disease progression. In this regard, suppression of the abnormal activation while maintenance of viability of microglia is important considerations. […] The viability assay was carried out using the water-soluble tetrazolium reagent WST-1 which eliminates the formazan dissolution step requested in case of MTT[65] employing multiple doses of 1, 10, 30, and 50 µM. […] In lieu of this, it might be inferred that these compounds showing effective inhibition of MAO-B activity and triggering no impairment of microglia viability are good candidates might be advanced for further evaluation towards the development of multifunctional molecules for neurodegenerative diseases such as PD.
The impact of the compounds on the viability of cells was performed by the well-known WST-1 assay method as described in the Supporting information.

[6] = system: LPS-treated BV2 cells (PGE2 production); assay: LPS-induced production of PGE2 in BV2 cells; format: cell-based; conditions: different concentrations, Figure 3(B)
Procedure: (§3) Neuroinflammation is a crucial component in neurodegenerative diseases. Chronic activation of microglia, which are the brain-resident form of macrophages, results in sustained production of several proinflammatory mediators including glial NO, PGE2, and others molecules that are implicated in multiple neurodegenerative diseases. […] In this regard, LPS-treated BV2 cells were incubated with or without different concentrations of each compound. […] Based on collective results of antineuroinflammatory activity evaluation, in conjugation with above-conducted MAO inhibitions’ assays, compound 1p might be claimed as a promising lead compound eliciting polypharmacological effects combining inhibition of neuroinflammation and MAO-B activity; both processes are crucial components of neurodegenerative diseases such as PD.
(§4) The abilities of compounds to inhibit the induced production of NO and PGE2 were assessed by well-known protocol as indicated in the Supporting information.

[7] = system: LPS-treated BV2 cells (NO production); assay: LPS-induced production of nitric oxide in BV2 cells; format: cell-based; conditions: different concentrations, Figure 3(A)
Procedure: as §3, §4

Compound	Reversibility of MAO-B inhibition [1]	IC50 [2] [µM]	Selectivity index for inhibition of MAO-B [2]	inhibition at 10 µM [2] [%]	Type of MAO-B inhibition ([3]; Lineweaver–Burk plots)	Ki ([3]; benzylamine as substrate) [µM]	IC50 [4] [µM]	inhibition at 10 µM [4] [%]	Impact on viability of BV2 cells [5]	Effect on LPS-induced PGE2 production by BV2 cells [6]	Effect on LPS-induced NO production by BV2 cells [7]
COc1cccc(/C=C2\Oc3cc(OC)ccc3C2=O)c1 [Compound 1y]	washing restored the enzymatic activity	0.201	>496	99.2	competitive inhibitors; also recorded: Competitive inhibition	0.0291	> 100	3.26	none of the tested concentrations		
O=C1/C(=C/c2ccccc2O)Oc2cc(O)ccc21 [Compound 1a]		> 10		< 50			> 10	9.02			
COc1cccc(/C=C2\Oc3cc(O)ccc3C2=O)c1 [Compound 1j]		2.41	>41	73.2			> 100	7.43			
O=C1/C(=C/c2cccc(O)c2O)Oc2cc(O)ccc21 [Compound 1c, (Z)-2–(2,3-Dihydroxybenzylidene)-6-hydroxybenzofuran-3(2H)-one]		3	>3.34	58.9			> 10	46.2			
O=C1/C(=C/c2ccc(O)c(O)c2)Oc2cc(O)ccc21 [Compound 1e]		2.41	1.93	61.8			4.66	64.9			
COc1ccc2c(c1)O/C(=C\c1ccccc1OC)C2=O [Compound 1x]		0.593	>168	89.5			> 100	21.6	none of the tested concentrations		
COc1ccc2c(c1)O/C(=C\c1ccc(O)cc1O)C2=O [Compound 1v]		6.04		66.7			8.2	55.7			
COc1ccc(/C=C2\Oc3cc(O)ccc3C2=O)cc1OC [Compound 1n]		> 10		42.6			> 10	4.52			
COc1ccc2c(c1)O/C(=C\c1cccc(O)c1)C2=O [Compound 1s]		> 10		48.9			> 10	7.73			
O=C1/C(=C/c2cc(O)ccc2O)Oc2cc(O)ccc21 [Compound 1f]		3.52	2.21	61.4			7.77	53.3			
COc1ccc(OC)c(/C=C2\Oc3cc(O)ccc3C2=O)c1 [Compound 1m]		> 10		46.3			> 10	-0.29			
COc1ccc2c(c1)O/C(=C\c1ccc(O)c(O)c1)C2=O [Compound 1w]		2.41		70.5			5.62	60.8			
O=C1/C(=C/c2cccc(O)c2)Oc2cc(O)ccc21 [Compound 1b]		> 10		13.6			> 10	16.6			
COc1ccc(/C=C2\Oc3cc(O)ccc3C2=O)cc1 [Compound 1k]		0.365		94.6			6.98	53			
O=C1/C(=C/c2ccc(O)cc2O)Oc2cc(O)ccc21 [Compound 1d]		> 10		48.3			> 10	44.1			
C[C@H](NCc1ccc(OCc2cccc(F)c2)cc1)C(N)=O [Safinamide, safinamide, reference compound]									cytotoxic effects	undesirable dose-dependent increase in PGE2 production	significant inhibition of NO production
COc1ccccc1/C=C1\Oc2cc(O)ccc2C1=O [Compound 1i]		1.84	>54	75.5			> 100	5.49			
O=C1/C(=C/c2cc(O)c(O)c(O)c2)Oc2cc(O)ccc21 [Compound 1h]		> 10		47.5			> 10	49.5			
COc1cccc(/C=C2\Oc3cc(O)ccc3C2=O)c1OC [Compound 1l]		3.52	>28	70.8			> 100	-2.21			
COCOc1ccc(/C=C2\Oc3cc(O)ccc3C2=O)cc1 [Compound 1q]		0.593	>168	89			> 100	24.5	none of the tested concentrations		
COc1ccc2c(c1)O/C(=C\c1ccc(O)cc1)C2=O [Compound 1t]		1.33	>75	89.6			> 100	8.54			
O=C1/C(=C/c2ccc(O)cc2)Oc2cc(O)ccc21 [Hispidol, hispidol, reference compound]							5.28	69.3	cytotoxic effects	effectively suppressed the induced-PGE2 production	significant inhibition of NO production
O=C1/C(=C/c2cc(O)cc(O)c2)Oc2cc(O)ccc21 [Compound 1g, (Z)-2–(3,5-Dihydroxybenzylidene)-6-hydroxybenzofuran-3(2H)-one]		> 10		12.8			> 10	35.7			
COc1ccc2c(c1)O/C(=C\c1ccccc1O)C2=O [Compound 1r]		> 10		22.5			> 10	2.29			
COc1cc(/C=C2\Oc3cc(O)ccc3C2=O)cc(OC)c1 [Compound 1o]		> 10		41.2			> 10	0.37			
COc1ccc2c(c1)O/C(=C\c1cccc(O)c1O)C2=O [Compound 1u, (Z)-2–(2,3-Dihydroxybenzylidene)-6-methoxybenzofuran-3(2H)-one]		2.41		65			7.04	52.8			
